Here are results for 22 molecules from patent US4994485A, “Thio compounds having fungicidal activity” (Duphar International Research B.V., priority 1986, dated 1991).

Structures are written as SMILES. A value given as a limit tells only on which side of the number the result lay.

The test system of one assay is Pyrenophora graminea. Kind of assay: In vitro test on activity against Pyrenophora graminea. The note with it: 48 hours, 20° C., read-out: % growth inhibition of the fungus. In kind it is cell-based. As for the experimental part: In vitro test on activity against Pyrenophora graminea.
(§1) The compound to be tested is processed in a culture medium consisting of 1% by weight of glucose, 0.2% by weight of a yeast extract (marmite), 0.5% by weight of a protein (pepton), 2.5% by weight of agar-agar, and 95.8% by weight of water, in petri dishes in concentrations of 3 and 10 ppm. The petri dishes are inoculated with the plant-pathogenic fungus Pyrenophora graminea and then kept at a temperature of 20° C. After 48 hours the growth-inhibiting activity of the compounds is determined visually. For comparison, the known substance (b) (see EXAMPLE XV) is also tested.

For assay [1], the system named is Fusarium culmorum. Kind of assay: In vitro test on activity against Fusarium culmorum. It is filed as cell-based. The conditions noted are these: read-out: growth inhibition of the fungus.
For the next assay, the system named is Leptosphaeria nodorum. Briefly: In vitro test on activity against Leptosphaeria nodorum. The conditions noted are these: Parastagonospora nodorum, read-out: growth inhibition of the fungus. It is filed as cell-based. On the procedure:
as §1
Compounds according to the invention are tested on i Leptosphaeria nodorum in the same manner as described in EXAMPLE XIX.

Another assay relates to Pythium splendens. Kind of assay: In vitro test on activity against Pythium splendens. It is filed as cell-based. The note with it: Globisporangium splendens, read-out: growth inhibition of the fungus.
The test system of the next assay is Rhizoctonia solani. Briefly: In vitro test on activity against Rhizoctonia solani. In kind it is cell-based. The conditions noted are these: read-out: growth inhibition of the fungus. As for the experimental part:
The compound to be tested is processed in a culture medium consisting of 1% by weight of glucose, 0.2% by weight of a yeast extract (marmite), 0.5% by weight of a protein (pepton), 2.5% by weight of agar-agar, and 95.8% by weight of water, […] The petri dishes are inoculated with the plant-pathogenic fungus Pyrenophora graminea and then kept at a temperature of 20° C. After 48 hours the growth-inhibiting activity of the compounds is determined visually. For comparison, the known substance (b) (see EXAMPLE XV) is also tested.
Compounds according to the invention are tested on Rhizoctonia solani in the same manner as described in EXAMPLE XIX.

A further assay concerns Pythium spp. Kind of assay: Protection of seedlings against plant-pathogenic soil fungus by seed treatment (beet). It is filed as in vivo. The conditions noted are these: after 3 weeks, 18°-22° C., untreated 72. As for the experimental part:
Test with respect to the protection of seedlings against a plant-pathogenicsoil fungus, namely Pythium spp., by means of a seed treatment.
The compounds to be tested are processed to compositions by pulverising them and then mixing them intimately with kaolin in the desired concentration (see Table B). Beet seed is treated with these compositions in a quantity of 6 g of composition per kg of seed and then sown in trays with soil which was seriously infested with Pythium spp. After 3 weeks in a glass-house at 18°-22° C. and a relative humidity of 70-100%, the percentage of non-emerged and diseased seedlings (damping-off) is determined. The results are recorded in Table B. For comparison, the known substance 2-methylsulphinyl-4-methyl-5-nitrothiazole(a) is also tested.

In assay [2] the test system is Fusarium culmorum. Briefly: Protection of seedlings against plant pathogenic seed fungus by seed treatment (wheat). It is filed as in vivo. The conditions noted are these: wheat seed infested with Fusarium culmorum; 3 g composition (10% by weight in kaolin) per kg of seed; after three weeks, 8°-12° C.; untreated 67. As for the experimental part: Test with respect to the protection of seedlings against a plant pathogenic seed fungus, namely Fusarium culmorum, by means of a seed treatment.
Wheat seed, infested with Fusarium culmorum, is treated with the substance to be tested in the form of a composi tion in a quantity of 3 g per kg of seed. The composition is obtained by pulverising the substance to be tested and then intimately mixing with kaolin in a concentration of 10% by weight. The seed thus treated is sown in a tray containing soil which is placed in a Wisconsin tank with a bottom temperature of 8°-12° C. After three weeks the number of emerged and healthy plants is determined. The emergence of healthy plants from untreated seed serves as control. For comparison, the known substances 2-methylsulphinyl-4-methyl-5-nitrothiazole (a), 2-methylsulphinyl-3-nitrothiophene (b) and 2-ethylsulphinyl-3-nitro-5-acetylthiophene (c) mentioned hereinbefore are also tested. In the examples, the numbers of the compounds refer to the specification.

Setting [3] is: 600 mg of active substance per kg of seed.
The mark [4] stands for this setting: 1200 mg of active substance per kg of seed.

A word on the inhibition: it is the drop in the measured response relative to a control, in per cent. Consider `CC[S+]([O-])c1sc(C(=O)c2ccc(Cl)cc2)cc1C#N` (stereo not shown) [(47), 2-ethylsulphinyl-3-cyano-5-(4-chlorobenzoyl)thiophene], for which the inhibition at 10 ppm with Pyrenophora graminea was 74%; with Pythium splendens, no less than 95%. The results for the inhibition at 30 ppm in the assay on Fusarium culmorum [1] and in the assay on Leptosphaeria nodorum were no less than 75% and no less than 85%, respectively.
For `CC[S+]([O-])c1sc(C(=O)c2ccc(Cl)cc2)c(Cl)c1C#N` (stereo not shown) [(72), 2-ethylsulphinyl-3-cyano-4-chloro-5-(4-chlorobenzoyl)thiophene], the values for the inhibition at 10 ppm in the assay on Pyrenophora graminea and in the assay on Pythium splendens were 70% and no less than 95%, respectively. Further, the inhibition at 30 ppm with Fusarium culmorum [1] was no less than 75%; in the assay with Leptosphaeria nodorum, no less than 85%.
On to `CCCCCC[S+]([O-])c1sc(C#N)c(Cl)c1C#N` (stereo not shown) [(34), 2-n-hexylsulphinyl-3,5-dicyano-4-chlorothiophene], for which the inhibition at 30 ppm in the assay with Fusarium culmorum [1] was no less than 75%; in the assay on Leptosphaeria nodorum it was no less than 85%; in the assay on Rhizoctonia solani, no less than 75%. Further, the inhibition at 10 ppm with Pythium splendens was no less than 95%.
As to `C[S+]([O-])c1sc(C(=O)c2ccc(Cl)cc2)cc1C#N` (stereo not shown) [(52), 2-methylsulphinyl-3-cyano-5-(4-chlorobenzoyl)thiophene], the figures for the inhibition at 10 ppm in the assay with Pyrenophora graminea and with Pythium splendens were 71% and no less than 95%, respectively. Further, the inhibition at 30 ppm in the assay with Fusarium culmorum [1] and in the assay on Rhizoctonia solani was no less than 75% each time.
Turning to `CCCCCCCC[S+]([O-])c1sc(C#N)c(Cl)c1C#N` (stereo not shown) [(36), 2-n-octylsulphinyl-3,5-dicyano-4-chlorothiophene], the inhibition at 30 ppm in the assay on Fusarium culmorum [1] was no less than 75%; in the assay with Leptosphaeria nodorum it was no less than 85%; in the assay on Rhizoctonia solani, no less than 75%. In the assay with Pythium splendens, the inhibition at 10 ppm was no less than 95%.
In the case of `CC[S+]([O-])c1sc(C(C)=O)cc1C#N` (stereo not shown) [(9), 2-ethylsulphinyl-3-cyano-5-acetylthiophene], the figures for the percentage damping-off in the assay on Pythium spp. (setting [3]) and with Pythium spp. (setting [4]) were 15% and 11%, respectively. Moreover, the inhibition at 30 ppm with Leptosphaeria nodorum is no less than 85%. In addition, in the assay on Fusarium culmorum [2], the “Percentage of emerged, healthy plants” value was determined as 85%. For the same molecule, the inhibition at 10 ppm in the assay on Pythium splendens is no less than 95%.
With `CCCC[S+]([O-])c1sc(C(C)=O)c(Cl)c1C#N` (stereo not shown) [(39), 2-n-butylsulphinyl 3-cyano-4-chloro-5-acetylthiophene], the inhibition at 10 ppm with Pyrenophora graminea is 81%; with Pythium splendens it was no less than 95%. For the same molecule, the inhibition at 30 ppm with Fusarium culmorum [1] and in the assay with Rhizoctonia solani was no less than 75% each time.
With `CC(=O)c1cc(C#N)c([S+](C)[O-])s1` (stereo not shown) [(1), 2-methylsulphinyl-3-cyano-5-acetylthiophene], the figures for the percentage damping-off in the assay on Pythium spp. (setting [3]) and with Pythium spp. (setting [4]) were 8% and 7%, respectively. The “Percentage of emerged, healthy plants” value with Fusarium culmorum [2] stood at 91%. Also, the inhibition at 10 ppm in the assay on Pythium splendens is no less than 95%.
For the molecule `CCSC(=C(C#N)c1ccc(Cl)cc1)[S+]([O-])CC` (stereo not drawn) [(53), α-cyano-β-ethylsulphinyl-β-ethylthio-4-chlorostyrene], the inhibition at 10 ppm in the assay on Pyrenophora graminea was found to be 83%. Also, the inhibition at 30 ppm with Fusarium culmorum [1] is no less than 75%; in the assay with Leptosphaeria nodorum it was no less than 85%.
As for `C[S+]([O-])c1sc(C#N)c(-c2ccc(Cl)cc2)c1C#N` (stereo not shown) [(35), 2-methylsulphinyl-3,5-dicyano-4-(4-chlorophenyl)thiophene], the inhibition at 10 ppm with Pyrenophora graminea is 76%; in the assay with Pythium splendens, no less than 95%. For the same molecule, the inhibition at 30 ppm in the assay on Fusarium culmorum [1] was no less than 75%; in the assay with Leptosphaeria nodorum, no less than 85%.
As for `C[S+]([O-])c1sc(C(=O)c2ccccc2)cc1C#N` (stereo not shown) [(51), 2-methylsulphinyl-3-cyano-5-benzoylthiophene], the inhibition at 10 ppm with Pyrenophora graminea worked out at 71%. In addition, the results for the inhibition at 30 ppm in the assay on Fusarium culmorum [1] and with Leptosphaeria nodorum were no less than 75% and no less than 85%, respectively.
Take `C[S+]([O-])c1sc(C(=O)c2ccc(Cl)cc2)c(Cl)c1C#N` (stereo not shown) [(42), 2-methylsulphinyl-3-cyano-4-chloro-5-(4-chlorobenzoyl) thiophene]: the inhibition at 30 ppm is no less than 75% in the assay with Fusarium culmorum [1], no less than 85% in the assay with Leptosphaeria nodorum and no less than 75% in the assay on Rhizoctonia solani. For the same molecule, the inhibition at 10 ppm with Pythium splendens was no less than 95%.
On to `C[S+]([O-])c1sc(C(=O)c2ccccc2)c(Cl)c1C#N` (stereo not shown) [(31), 2-methylsulphinyl-3-cyano-4-chloro 5-benzoylthiophene], for which the inhibition at 10 ppm is 77% with Pyrenophora graminea and no less than 95% in the assay with Pythium splendens. The figures for the inhibition at 30 ppm with Fusarium culmorum [1] and with Leptosphaeria nodorum were no less than 75% and no less than 85%, respectively.
`CC[S+]([O-])c1sc2cc([N+](=O)[O-])ccc2c1C#N` (stereo not shown) [(27), 2-ethylsulphinyl-3-cyano-6-nitro-benzothiophene]: the percentage damping-off in the assay on Pythium spp. (setting [3]) is recorded as 4%; in the assay with Pythium spp. (setting [4]) it was 2%. The inhibition at 30 ppm is no less than 75% with Fusarium culmorum [1], no less than 85% in the assay on Leptosphaeria nodorum and no less than 75% with Rhizoctonia solani. Besides, the “Percentage of emerged, healthy plants” value in the assay on Fusarium culmorum [2] is recorded as 96%. In addition, the inhibition at 10 ppm in the assay on Pythium splendens is no less than 95%.
With `CC[S+]([O-])c1sc(C(C)=O)c(Cl)c1C#N` (stereo not shown) [(5), 2-ethylsulphinyl-3-cyano-4-chloro-5-acetylthiophene], in the assay on Pyrenophora graminea (3 ppm), the inhibition at 3 ppm amounted to 54%. Further, the inhibition at 10 ppm in the assay on Pyrenophora graminea is 89%; in the assay with Pythium splendens it was no less than 95%. For the same molecule, the percentage damping-off is 21% with Pythium spp. (setting [3]) and 17% in the assay with Pythium spp. (setting [4]). For the same molecule, the results for the inhibition at 30 ppm in the assay on Fusarium culmorum [1] and with Leptosphaeria nodorum were no less than 75% and no less than 85%, respectively. In addition, in the assay with Fusarium culmorum [2], the “Percentage of emerged, healthy plants” value worked out at 85%.
In the case of `CSC(=C(C#N)c1ccc(Cl)c(Cl)c1)[S+](C)[O-]` (stereo not drawn) [(15), α-cyano-β-merhylsulphinyl-β-methylthio-3,4-dichloro-styrene], the inhibition at 30 ppm with Leptosphaeria nodorum was no less than 85%; with Rhizoctonia solani, no less than 75%. The inhibition at 10 ppm with Pythium splendens was no less than 95%.
For the molecule `COc1c(C#N)sc([S+](C)[O-])c1C#N` (stereo not shown) [(12), 2-methylsulphinyl-3,5-dicyano-4-methoxythiophene], the percentage damping-off in the assay with Pythium spp. (setting [3]) and with Pythium spp. (setting [4]) was 0% throughout. For the same molecule, the inhibition at 30 ppm was no less than 75% in the assay on Fusarium culmorum [1] and no less than 85% in the assay on Leptosphaeria nodorum. Also, the “Percentage of emerged, healthy plants” value in the assay on Fusarium culmorum [2] is on record as 93%. Also, the inhibition at 10 ppm in the assay on Pythium splendens was no less than 95%.
As for `CCCC[S+]([O-])c1sc(C(C)=O)c(Br)c1C#N` (stereo not shown) [(86), 2-n-butylsulphinyl-3-cyano-4-bromo-5-acetylthiophene], the inhibition at 10 ppm is 76% in the assay with Pyrenophora graminea and no less than 95% in the assay on Pythium splendens. Besides, the inhibition at 30 ppm was no less than 75% with Fusarium culmorum [1] and no less than 85% with Leptosphaeria nodorum.
In the case of `CCCC[S+]([O-])c1sc(C#N)cc1C#N` (stereo not shown) [(80)], the inhibition at 30 ppm in the assay with Fusarium culmorum [1] and in the assay with Rhizoctonia solani was no less than 75% in each case. Also, the inhibition at 10 ppm in the assay on Pythium splendens was no less than 95%.
Consider `CCOc1c(C#N)sc([S+]([O-])CC)c1C#N` (stereo not shown) [(14), 2-ethylsulphinyl-3,5-dicyano-4-ethoxythiophene], for which the percentage damping-off in the assay on Pythium spp. (setting [3]) is 23%; in the assay with Pythium spp. (setting [4]), 20%. In addition, the inhibition at 30 ppm is no less than 75% in the assay with Fusarium culmorum [1] and no less than 85% in the assay on Leptosphaeria nodorum. Further, the “Percentage of emerged, healthy plants” value in the assay on Fusarium culmorum [2] is 87%. For the same molecule, the inhibition at 10 ppm in the assay on Pythium splendens is no less than 95%.
Take `CSC(=C(C#N)c1ccc(Cl)cc1)[S+](C)[O-]` (stereo not drawn) [(19), α-cyanoβ-methylsulphinyl-β-methylthio-4-chlorostyrene]: the values for the inhibition at 30 ppm in the assay with Fusarium culmorum [1], in the assay on Leptosphaeria nodorum and in the assay with Rhizoctonia solani were no less than 75%, no less than 85% and no less than 75%, respectively. In addition, the inhibition at 10 ppm in the assay with Pythium splendens is no less than 95%.
On to `C[S+]([O-])c1sc(C#N)c(Sc2ccccc2)c1C#N` (stereo not shown) [(85), 2-methylsulphinyl-3,5-dicyano-4-phenylthio-thiophene], for which the inhibition at 10 ppm in the assay with Pyrenophora graminea was 73%; in the assay on Pythium splendens it was no less than 95%. Moreover, the inhibition at 30 ppm is no less than 75% with Fusarium culmorum [1], no less than 85% in the assay with Leptosphaeria nodorum and no less than 75% in the assay with Rhizoctonia solani.
